Experimental data: US11896591B2, “Compositions and methods for preparing and using mitochondrial uncouplers” (UNIVERSITY OF VIRGINIA PATENT FOUNDATION, priority 2017, dated 2024)
Entries after “also recorded” stand apart in the source; their conditions may differ.

Tests used:
whole cells = assay: Oxygen consumption rate (OCR) in whole cells, Seahorse XF-24 Flux Analyzer; type: cell-based; details: for EC50: binned EC50 values, increase in oxygen consumption rate in whole cells
Procedure: Biological activities of the compounds synthesized is determined by determining increase in oxygen consumption rate (OCR).
OCR is measured using a Seahorse XF-24 Flux Analyzer (Seahorse Biosciences, North Billerica, MA). NMuLi, C2C12, and L6 cells are seeded in a Seahorse 24-well tissue culture plate at a density of 3.5×10^4 cells/well, isolated cardiomyocytes at a density of 4×10^4 cells/well, and human primary fibroblasts at a density of 1.1×10^4 cells/well. The cells are then allowed to adhere for 24 h. […] Compounds are injected during the assay and OCR is measured using 2 min measurement periods.
2-3 wells are used per condition and averaged over three plates (n=6-9). Statistical significance is determined by two-way ANOVA with Bonferroni's posttest.

[1] = system: Diet-induced Obesity Mouse Model; assay: Diet Induced Obesity Mouse Study; type: in vivo, Male C57B/6J mice
Procedure: Male C57B/6J mice aged 3 months (n=6) are assigned to one of three treatment groups: normal chow diet (Chow), western diet (WD) or western diet containing compound 4c (WD+4c). Mice fed WD and WD 4c are individually housed and given 3 grams of fresh food daily. WD+4c contained a dose of 4c equivalent to 50 mg/kg/day. For all treatments pre-weighed food is placed in cages and food intake is calculated daily. Fat and lean mass are measured by EchoMRI. Fat and lean mass for mice given the high fat Western Diet or the Western Diet with the compound 4c was determined by Echo MRI and shown in FIG. 6.

[2] = system: STAM mouse model of fatty liver disease; assay: STAM mouse model of fatty liver disease (NALFD criteria: steatosis, inflammation, ballooning); type: in vivo
[3] = patients consuming ˜300 mg/d, over several months, without changes in food intake; cited from earlier work

Row | SMILES | EC50 (whole cells) | also measured
1 | Fc1cccc(Nc2nc3nonc3nc2Nc2ccccc2F)c1 [Compound 4c, N^5-(2-fluorophenyl)-N^6-(3-fluorophenyl)-[1,2,5]oxadiazolo[3,4-b]pyrazine-5,6-diamine] | < 5 µM | Oxygen consumption rate as a function of drug dose (whole cells; compared with BAM15 or FCCP (FIG. 1, FIG. 2)): higher oxygen consumption rate than mitochondrial uncouplers, BAM15 or FCCP; also recorded: consistently high oxygen consumption rate than the mitochondrial uncoupler BAM15; Glucose tolerance test ([1]; WD + 50 mg/kg/day compound 4c vs WD): significantly improved glucose tolerance; Lean mass ([1]; WD + 4c 50 mg/kg/day vs WD, EchoMRI): without losing lean mass; also recorded: substantially the same lean mass; Food intake ([1]; WD + 4c vs WD): without a significant change in food intake; Fat mass ([1]; Western Diet (WD) + 4c 50 mg/kg/day vs WD, EchoMRI): gain less fat mass; also recorded: gained significantly less fat mass; Anti-inflammatory effects ([2]; STAM mouse model (FIG. 3)): anti-inflammatory effects; Combined NALFD score ([2]; based on the steatosis, inflammation and ballooning assays, vs BAM15): significantly lower NALFD score than BAM15
2 | Cn1c(C(F)(F)F)nc2nc(Nc3ccc(OC(F)(F)F)c(F)c3)c(Nc3ccc(OC(F)(F)F)c(F)c3)nc21 [Compound 13f, N^5,N^6-bis(3-fluoro-4-(trifluoromethoxy)phenyl)-1-methyl-2-(trifluoromethyl)-imidazo[4,5-b]pyrazine-5,6-diamine] | 5 to 20 µM | 
3 | Cn1c(C(F)(F)F)nc2nc(Nc3ccc(C(F)(F)F)cc3F)c(Nc3ccc(C(F)(F)F)cc3F)nc21 [Compound 13g, N^5,N^6-bis(2-fluoro-4-(trifluoromethyl)phenyl)-1-methyl-2-(trifluoromethyl)-imidazo[4,5-b]pyrazine-5,6-diamine] | < 5 µM | 
4 | Cn1c(C(F)(F)F)nc2nc(Nc3ccc(C(F)(F)F)c(F)c3)c(Nc3ccc(C(F)(F)F)c(F)c3)nc21 [Compound 13h, N^5,N^6-bis(3-fluoro-4-(trifluoromethyl)phenyl)-1-methyl-2-(trifluoromethyl)-imidazo[4,5-b]pyrazine-5,6-diamine] | > 20 µM | 
5 | Cn1c(C(F)(F)F)nc2nc(Nc3cc(F)cc(F)c3)c(Nc3cc(F)cc(F)c3)nc21 [Compound 13i, N^5,N^6-bis(3,5-difluorophenyl)-1-methyl-2-(trifluoromethyl)-imidazo[4,5-b]pyrazine-5,6-diamine] | 5 to 20 µM | 
6 | Cn1c(C(F)(F)F)nc2nc(Nc3cccc(F)c3F)c(Nc3cccc(F)c3F)nc21 [Compound 13j, N^5,N^6-bis(2,3-difluorophenyl)-1-methyl-2-(trifluoromethyl)-imidazo[4,5-b]pyrazine-5,6-diamine] | > 20 µM | 
7 | Cc1ccc(Nc2nc3nc(C(F)(F)F)n(C)c3nc2Nc2ccc(C)cc2)cc1 [Compound 13k, 1-Methyl-N^5,N^6-di-p-tolyl-2-(trifluoromethyl)-imidazo[4,5-b]pyrazine-5,6-diamine] | > 20 µM | 
8 | Cn1c(C(F)(F)F)nc2nc(Nc3ccc(OC(F)(F)F)cc3)c(Nc3ccc(OC(F)(F)F)cc3)nc21 [Compound 13m, 1-Methyl-N^5,N^6-bis(4-(trifluoromethoxy)phenyl)-2-(trifluoromethyl)-imidazo[4,5-b]pyrazine-5,6-diamine] | 5 to 20 µM | 
9 | Cn1c(C(F)(F)F)nc2nc(Nc3ccccc3F)c(Nc3ccc(OC(F)(F)F)cc3)nc21 [Compound 13p, 1-Methyl-N^5-(2-fluorophenyl)-N^6-(4-(trifluoromethoxy)phenyl)-2-(trifluoromethyl)-imidazo[4,5-b]pyrazine-5,6-diamine] | > 20 µM | 
10 | Cn1c(C(F)(F)F)nc2nc(Nc3ccccc3F)c(Nc3cc(C(F)(F)F)cc(C(F)(F)F)c3)nc21 [Compound 13q, 1-Methyl-N^5-(2-fluorophenyl)-N^6-(3,5-bis(trifluoromethyl)phenyl)-2-(trifluoromethyl)-imidazo[4,5-b]pyrazine-5,6-diamine] | > 20 µM | 
11 | COc1ccc(Nc2nc3c(nc2Nc2ccccc2F)nc(C(F)(F)F)n3C)cc1 [Compound 13r, 1-Methyl-N^5-(2-fluorophenyl)-N^6-(4-methoxyphenyl)-2-(trifluoromethyl)-imidazo[4,5-b]pyrazine-5,6-diamine] | > 20 µM | 
12 | Cn1c(C(F)(F)F)nc2nc(Nc3ccccc3F)c(Nc3ccccc3)nc21 [Compound 13s, 1-Methyl-N^5-(2-fluorophenyl)-N^6-phenyl-2-(trifluoromethyl)-imidazo[4,5-b]pyrazine-5,6-diamine] | > 20 µM | 
13 | Cn1c(C(F)(F)F)nc2nc(Nc3ccccc3F)c(Nc3cccc(C(F)(F)F)c3F)nc21 [Compound 13t, 1-Methyl-N^5-(2-fluorophenyl)-N^6-(2-fluoro-3-(trifluoromethyl)phenyl)-2-(trifluoromethyl)-imidazo[4,5-b]pyrazine-5,6-diamine] | > 20 µM | 
14 | Cc1ccc(Nc2nc3c(nc2Nc2ccccc2F)nc(C(F)(F)F)n3C)cc1 [Compound 13u, 1-Methyl-N^5-(2-fluorophenyl)-N^6-(p-tolyl)-2-(trifluoromethyl)-imidazo[4,5-b]pyrazine-5,6-diamine] | > 20 µM | 
15 | Cn1c(C(F)(F)F)nc2nc(Nc3ccccc3F)c(NC3CCCCC3)nc21 [Compound 13v, 1-Methyl-N^5-(2-fluorophenyl)-N^6-cyclohexyl-2-(trifluoromethyl)-imidazo[4,5-b]pyrazine-5,6-diamine] | > 20 µM | 
16 | CCCNc1nc2c(nc1Nc1ccccc1F)nc(C(F)(F)F)n2C [Compound 13w, 1-Methyl-N^5-(2-fluorophenyl)-N^6-propyl-2-(trifluoromethyl)-imidazo[4,5-b]pyrazine-5,6-diamine] | > 20 µM | 
17 | Cn1c(C(F)(F)F)nc2nc(Nc3ccccc3F)c(NCCC(F)(F)F)nc21 [Compound 13x, 1-Methyl-N^5-(2-fluorophenyl)-N^6-3,3,3-trifluoropropyl-2-(trifluoromethyl)-imidazo[4,5-b]pyrazine-5,6-diamine] | > 20 µM | 
18 | COC(=O)n1c(C(F)(F)F)nc2nc(Nc3ccccc3F)c(Nc3ccccc3F)nc21 [Compound 14a, Methyl 5,6-bis((2-fluorophenyl)amino)-2-(trifluoromethyl)-imidazo[4,5-b]pyrazine-1-carboxylate] | 5 to 20 µM | 
19 | COC(=O)n1c(C(F)(F)F)nc2nc(Nc3cc(F)cc(F)c3)c(Nc3cc(F)cc(F)c3)nc21 [Compound 14c, Methyl 5,6-bis((3,5-difluorophenyl)amino)-2-(trifluoromethyl)-imidazo[4,5-b]pyrazine-1-carboxylate] | 5 to 20 µM | 
20 | FC(F)(F)c1cccc(Nc2nccnc2Nc2cccc(C(F)(F)F)c2)c1 [Compound 16b, N^2,N^3-bis(3-(trifluoromethyl)phenyl)pyrazine-2,3-diamine] | < 5 µM | 
21 | FC(F)(F)c1ccc(Nc2nccnc2Nc2ccc(C(F)(F)F)cc2)cc1 [Compound 16c, N^2,N^3-bis(4-(trifluoromethyl)phenyl)pyrazine-2,3-diamine] | < 5 µM | 
22 | FC(F)(F)c1cc(Nc2nccnc2Nc2cc(C(F)(F)F)cc(C(F)(F)F)c2)cc(C(F)(F)F)c1 [Compound 16f, N^2,N^3-bis(3,5-bis(trifluoromethyl)phenyl)pyrazine-2,3-diamine] | 5 to 20 µM | 
23 | Fc1cc(C(F)(F)F)ccc1Nc1nccnc1Nc1ccc(C(F)(F)F)cc1F [Compound 16h, N^2,N^3-bis(2-fluoro-4-(trifluoromethyl)phenyl)pyrazine-2,3-diamine] | 5 to 20 µM | 
24 | FC(F)(F)Oc1ccc(Nc2nccnc2Nc2ccc(OC(F)(F)F)cc2)cc1 [Compound 16n, N^2,N^3-bis(4-(trifluoromethoxy)phenyl)pyrazine-2,3-diamine] | < 5 µM | 
25 | O=[N+]([O-])c1ccc(O)c([N+](=O)[O-])c1 [DNP, 2,4-dinitrophenol] |  | Weight loss [3]: 1.5 pounds per week
